Laboratory results from patent EP0758233B1, “PDE IV INHIBITORS FOR TREATING MULTIPLE SCLEROSIS” (SCHERING AKTIENGESELLSCHAFT, priority 1994, dated 1995).

Tests used:
[1] = system: Experimental Allergic Encephalomyelitis (EAE); assay: Prevention of Experimental Allergic Encephalomyelitis (EAE) in immunized marmosets; assay type: in vivo, Callithrix jacchus (common marmoset); settings: treatment stopped on day 60 following immunization; two marmosets; day counted from withdrawal
active EAE = assay: Treatment of active (chronic) EAE in a marmoset; assay type: in vivo, Callithrix jacchus (common marmoset); settings: one marmoset with chronic EAE; escalating doses of Rolipram in DMSO
[2] = system: adoptive cell transfer (tEAE); assay: EAE after adoptive cell transfer (tEAE) in Lewis rats; assay type: in vivo; settings: treatment after onset of symptoms; n = 5
Protocol: The results of our in vivo findings prompted us to perform treatment experiments in EAE after active immunization (aEAE) and adoptive cell transfer (tEAE) in Lewis rats. […] In clinically manifest EAE, treatment was started within 6 hours of the onset of symptoms. […] In tEAE similar effects were observed. […] Treatment after onset of symptoms also lead to a marked reduction in maximum severity (treated group: MMS 0.7 ± 0.10, n = 5; vehicle treated matched controls 2.45 ± 0.56, n = 5, p 0.01).

[3] = system: encephalitogenic CD4+ MBP-specific rat TCL (L1402); assay: TNF/LT production by rat MBP-specific T-cell line, cytotoxicity bioassay; assay type: cell-based; settings: stereospecificity, (-)- versus (+)-enantiomer
Source text: To assess the ability of rolipram alone or in various combinations as described to modify autoimmune processes, we investigated its influence on TNF production in vitro by MBP-specific T-cell lines from MS patients and Lewis rats. MBP is a major candidate antigen in MS, and T-cell-mediated immunity is of crucial importance in its pathogenesis. Similar to EAE, MBP-specific T-cells in humans are often cytotoxic, of Th1 type secreting interferon (IFN)-gamma and TNF/LT, and recognize epitopes that are also encephalitogenic in EAE.
Similar results were found using an encephalitogenic CD4+ MBP-specific rat TCL (L1402). […] Previous investigations had shown that inhibition of cAMP PDE by rolipram is stereospecific.
TNF and LT may both be produced by autoactive T-cells. CD4+ cells have been reported to be the major source of TFN in autoimmune insulitis of NOD mice. The cytokine bioassay for TNF/LT detection employed here is sensitive to TNF and LT, but is 200 times more sensitive to the former.

SMILES | clinical signs of EAE following withdrawal of Rolipram [1] [days] | MRI improvement following initiating Rolipram treatment (active EAE) [days] | marked improvement (physical symptoms) after initiating treatment (active EAE) [days] | maximum severity, MMS [2] | times more effective than the (+)-enantiomer (inhibition of TNF/LT production) [3] [times]
COc1ccc(C2CNC(=O)C2)cc1OC1CCCC1 (centres unmarked) [Rolipram, 4-[(3-cyclopentyloxy)-4-methoxyphenyl)-2-pyrrolidinone] | 17 | 14 | 10 | 0.7 ± 0.10 | 
COc1ccc(C2CNC(=O)C2)cc1OC1CCCC1 (single isomer, unassigned; (-)) [(-)-rolipram] |  |  |  |  | 55
